According to ChEMBL document CHEMBL3045129, “Synthesis and anti-inflammatory activity of some pyrazole derivatives” (Med Chem Res, 2012):

Tests used:
Rattus norvegicus [1] = experiment: Anti-inflammatory activity inRattus norvegicus albino (rat) assessed as inhibition of carrageenan-induced paw edema at 100 mg/kg, po administered 3 hr prior challenge measured after 1 hr post challenge; type: functional
Rattus norvegicus [2] = experiment: Anti-inflammatory activity inRattus norvegicus albino (rat) assessed as inhibition of carrageenan-induced paw edema at 100 mg/kg, po administered 2 hr prior challenge measured after 1 hr post challenge; type: functional
Rattus norvegicus [3] = experiment: Anti-inflammatory activity inRattus norvegicus albino (rat) assessed as inhibition of carrageenan-induced paw edema at 100 mg/kg, po administered 1 hr prior challenge measured after 1 hr post challenge; type: functional
Rattus norvegicus [4] = experiment: Toxicity inRattus norvegicus albino (rat) assessed as ulcerogenicity at 100 mg/kg, po measured after 1 hr; type: organism-based; design: dose 100 mg/kg, route oral; settings: in vivo

Structure (SMILES)	inhibition in vivo at 100 mg/kg (Rattus norvegicus [1]) [%]	inhibition in vivo at 100 mg/kg (Rattus norvegicus [2]) [%]	inhibition in vivo at 100 mg/kg (Rattus norvegicus [3]) [%]	UI (Rattus norvegicus [4])
Cc1cccc(-n2c(Cn3nc(C)cc3C)n[nH]c2=S)c1	33.4	22.7	13.2	–
Cc1cccc(NC(=S)NNC(=O)Cn2nc(C)cc2C)c1	40.8	22.9	12.3	–
COc1ccc(NC(=S)NNC(=O)Cn2nc(C)cc2C)cc1	46.4	41.4	30.3	–
Cc1cc(C)n(Cc2nnc(Nc3ccc([N+](=O)[O-])cc3)s2)n1	64.9	50	37.5	15.6
Cc1ccc(-c2cc(C(F)(F)F)nn2-c2ccc(S(N)(=O)=O)cc2)cc1 [CELECOXIB]	63.8	45.8	31.4	–
Cc1cc(-c2ccccc2)n(Cc2n[nH]c(=S)o2)n1	48.7	34.2	26.3	–
COc1ccc2c(c1)c(CC(=O)O)c(C)n2C(=O)c1ccc(Cl)cc1 [INDOMETHACIN]	60.8	40.1	31.5	20.4
Cc1cc(-c2ccc(Cl)cc2)n(Cc2n[nH]c(=S)o2)n1	39.2	31.2	15.4	–
Cc1cc(-c2ccc(Cl)cc2)n(-c2ccc(S(=O)(=O)Nc3nccs3)cc2)n1	62	44.3	34.1	–
CCCNc1nnc(Cn2nc(C)cc2-c2ccccc2)s1	54.1	42.2	26.9	–
Cc1cc(-c2ccc(Cl)cc2)n(Cc2nnc(Nc3ccc([N+](=O)[O-])cc3)s2)n1	61.1	45	32.8	–
Cc1cc(C)n(Cc2n[nH]c(=S)o2)n1	34.9	21.5	14.4	–
Cc1cc(-c2ccc(Cl)cc2)n(-c2ccc(S(N)(=O)=O)cc2)n1	62.5	49.8	37.2	5.2
Cc1cc(C)n(CC(=O)NNC(=S)Nc2ccc([N+](=O)[O-])cc2)n1	62.7	44.4	36.1	18.6
Cc1cc(C)n(Cc2n[nH]c(=S)n2-c2ccc([N+](=O)[O-])cc2)n1	36.4	27.1	16.6	–
